The source of these data is patent US9029386B2, “Pyridine derivatives useful as kinase inhibitors” (YM Biosciences Australia Pty Ltd, priority 2006, dated 2015).

A word on the inhibition: it is the relative decrease from the control value, in per cent.

What all share (format): biochemical
One experiment has as its target T1, cSRC(h) (Homo sapiens, UniProt P12931).
T1 construct: purchased Upstate Biotechnology (Dundee, UK), KinaseProfiler service
Description: KinaseProfiler assay (Upstate), cSRC. The method, then: (§1) Further enzyme assays were conducted at Upstate Biotechnology (Dundee, UK) in the KinaseProfiler™ Assay system.
(§2) The general protocol is as follows. All kinases are pre-diluted to a 10× working concentration prior to addition into the assay. The composition of the dilution buffer for the kinases is 20 mM MOPS pH 7.0, 1 mM EDTA, 0.1% β-mercaptoethanol, 0.01% Brij-35, 5% glycerol, 1 mg/ml BSA. All substrates are dissolved and diluted to working stocks in de-ionised water.

The target of another experiment is T2, EphA2(h) (Homo sapiens, UniProt P29317).
T2 construct: purchased Upstate Biotechnology (Dundee, UK), KinaseProfiler service
The experiment is described as follows: KinaseProfiler assay (Upstate), EphA2. The method, then: as §1, §2
(§3) In a final reaction volume of 25 EphA2 (h) (5-10 mU) is incubated with 8 mM MOPS pH 7.0, 0.2 mM EDTA, 0.1 mg/ml poly(Glu, Tyr) 4:1, 10 mM MgAcetate and [γ-33P-ATP] (specific activity approx. 500 cpm/pmol, concentration as required). The reaction is initiated by the addition of the MgATP mix. After incubation for 40 minutes at room temperature, the reaction is stopped by the addition of 5 μl of a 3% phosphoric acid solution. 10 μl of the reaction is then spotted onto a Filtermat A and washed three times for 5 minutes in 75 mM phosphoric acid and once in methanol prior to drying and scintillation counting.

In another experiment the target is T3, EphA3(h) (Homo sapiens, UniProt P29320).
T3 construct: purchased Upstate Biotechnology (Dundee, UK), KinaseProfiler service
T3 sequence (P29320 21-983): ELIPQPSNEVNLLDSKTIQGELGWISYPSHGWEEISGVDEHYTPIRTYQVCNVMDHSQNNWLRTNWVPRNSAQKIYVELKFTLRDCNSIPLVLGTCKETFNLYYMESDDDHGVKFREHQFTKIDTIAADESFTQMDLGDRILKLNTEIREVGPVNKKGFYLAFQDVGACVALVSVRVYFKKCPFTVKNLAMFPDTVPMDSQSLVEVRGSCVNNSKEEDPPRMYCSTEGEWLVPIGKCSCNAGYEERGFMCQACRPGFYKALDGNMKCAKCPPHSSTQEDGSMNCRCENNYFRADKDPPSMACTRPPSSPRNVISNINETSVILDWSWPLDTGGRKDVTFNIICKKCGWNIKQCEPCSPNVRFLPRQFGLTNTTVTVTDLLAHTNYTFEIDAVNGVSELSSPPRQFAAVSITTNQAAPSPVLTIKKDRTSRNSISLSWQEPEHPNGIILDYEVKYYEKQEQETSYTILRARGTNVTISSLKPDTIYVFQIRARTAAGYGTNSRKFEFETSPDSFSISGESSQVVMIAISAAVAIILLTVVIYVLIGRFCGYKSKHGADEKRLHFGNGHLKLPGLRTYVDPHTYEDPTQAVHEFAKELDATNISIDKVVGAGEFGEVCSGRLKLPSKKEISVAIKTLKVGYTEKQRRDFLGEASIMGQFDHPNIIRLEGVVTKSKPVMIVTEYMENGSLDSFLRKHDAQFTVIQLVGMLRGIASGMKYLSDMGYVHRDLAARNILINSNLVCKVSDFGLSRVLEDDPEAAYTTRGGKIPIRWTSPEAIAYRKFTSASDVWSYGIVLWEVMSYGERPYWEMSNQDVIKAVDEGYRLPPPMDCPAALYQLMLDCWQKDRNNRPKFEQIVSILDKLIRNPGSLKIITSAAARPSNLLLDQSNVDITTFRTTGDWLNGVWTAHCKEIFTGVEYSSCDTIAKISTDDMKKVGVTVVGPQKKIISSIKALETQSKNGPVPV
The experiment is described as follows: KinaseProfiler assay (Upstate), EphA3. Here is the method:
as §1, §2
as §3, with “EphA3” for “EphA2”

A further experiment addresses T4, EphA8(h) (Homo sapiens, UniProt P29322).
T4 construct: purchased Upstate Biotechnology (Dundee, UK), KinaseProfiler service
T4 sequence (P29322 28-1005): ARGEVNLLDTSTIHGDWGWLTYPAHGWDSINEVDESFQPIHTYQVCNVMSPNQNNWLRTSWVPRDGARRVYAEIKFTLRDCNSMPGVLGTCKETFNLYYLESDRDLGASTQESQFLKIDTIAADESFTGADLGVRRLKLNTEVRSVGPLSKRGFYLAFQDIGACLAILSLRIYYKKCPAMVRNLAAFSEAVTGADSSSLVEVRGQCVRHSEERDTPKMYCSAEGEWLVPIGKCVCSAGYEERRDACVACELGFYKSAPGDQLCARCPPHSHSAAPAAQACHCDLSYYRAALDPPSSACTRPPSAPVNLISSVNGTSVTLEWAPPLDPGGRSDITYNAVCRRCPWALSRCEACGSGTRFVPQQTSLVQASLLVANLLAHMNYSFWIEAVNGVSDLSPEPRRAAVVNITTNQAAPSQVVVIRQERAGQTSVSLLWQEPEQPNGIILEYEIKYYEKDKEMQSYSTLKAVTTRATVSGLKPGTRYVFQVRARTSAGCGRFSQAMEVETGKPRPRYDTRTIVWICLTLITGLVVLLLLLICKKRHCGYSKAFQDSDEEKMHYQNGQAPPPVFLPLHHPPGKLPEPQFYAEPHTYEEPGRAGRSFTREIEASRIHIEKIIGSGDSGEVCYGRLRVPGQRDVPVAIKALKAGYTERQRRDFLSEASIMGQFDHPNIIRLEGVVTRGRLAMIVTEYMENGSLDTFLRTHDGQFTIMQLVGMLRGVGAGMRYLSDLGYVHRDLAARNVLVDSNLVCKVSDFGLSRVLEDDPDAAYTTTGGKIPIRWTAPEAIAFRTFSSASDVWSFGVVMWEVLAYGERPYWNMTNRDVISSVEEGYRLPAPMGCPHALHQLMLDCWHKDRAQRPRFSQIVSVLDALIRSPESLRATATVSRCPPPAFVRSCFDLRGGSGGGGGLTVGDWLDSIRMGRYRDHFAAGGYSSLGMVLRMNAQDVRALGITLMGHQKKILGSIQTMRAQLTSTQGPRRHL
The experiment is described as follows: KinaseProfiler assay (Upstate), EphA8. The method, then:
as §1, §2

The next experiment has as its target T5, PTK5(h) (Homo sapiens, UniProt P42685).
T5 construct: purchased Upstate Biotechnology (Dundee, UK), KinaseProfiler service
The experiment is described as follows: KinaseProfiler assay (Upstate), PTK5. Here is the method:
as §1, §2

T2 sequence (P29317 24-976): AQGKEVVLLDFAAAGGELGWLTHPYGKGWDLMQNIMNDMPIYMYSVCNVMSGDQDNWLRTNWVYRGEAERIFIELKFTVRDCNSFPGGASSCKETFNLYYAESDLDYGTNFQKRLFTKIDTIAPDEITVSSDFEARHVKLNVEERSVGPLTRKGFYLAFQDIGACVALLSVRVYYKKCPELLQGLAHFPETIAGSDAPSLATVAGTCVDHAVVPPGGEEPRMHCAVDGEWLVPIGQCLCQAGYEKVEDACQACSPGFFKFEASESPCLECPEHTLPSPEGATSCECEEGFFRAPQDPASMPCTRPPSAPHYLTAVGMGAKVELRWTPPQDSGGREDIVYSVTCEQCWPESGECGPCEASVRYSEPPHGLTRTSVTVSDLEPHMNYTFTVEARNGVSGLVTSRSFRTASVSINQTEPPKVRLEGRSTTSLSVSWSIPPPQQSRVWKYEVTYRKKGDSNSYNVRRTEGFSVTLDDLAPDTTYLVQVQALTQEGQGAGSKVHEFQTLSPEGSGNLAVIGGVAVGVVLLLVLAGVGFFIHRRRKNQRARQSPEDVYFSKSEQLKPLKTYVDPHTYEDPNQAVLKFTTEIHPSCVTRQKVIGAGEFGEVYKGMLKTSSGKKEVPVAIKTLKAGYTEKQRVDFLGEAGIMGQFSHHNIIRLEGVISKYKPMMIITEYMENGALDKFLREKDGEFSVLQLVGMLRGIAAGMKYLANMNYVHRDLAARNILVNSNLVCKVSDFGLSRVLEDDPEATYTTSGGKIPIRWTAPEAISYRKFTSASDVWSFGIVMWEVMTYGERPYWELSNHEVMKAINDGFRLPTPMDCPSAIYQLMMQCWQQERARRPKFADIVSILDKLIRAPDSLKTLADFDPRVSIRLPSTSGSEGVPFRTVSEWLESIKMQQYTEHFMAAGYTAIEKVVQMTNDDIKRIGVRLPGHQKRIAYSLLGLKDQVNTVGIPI
T1 sequence (P12931 whole entry): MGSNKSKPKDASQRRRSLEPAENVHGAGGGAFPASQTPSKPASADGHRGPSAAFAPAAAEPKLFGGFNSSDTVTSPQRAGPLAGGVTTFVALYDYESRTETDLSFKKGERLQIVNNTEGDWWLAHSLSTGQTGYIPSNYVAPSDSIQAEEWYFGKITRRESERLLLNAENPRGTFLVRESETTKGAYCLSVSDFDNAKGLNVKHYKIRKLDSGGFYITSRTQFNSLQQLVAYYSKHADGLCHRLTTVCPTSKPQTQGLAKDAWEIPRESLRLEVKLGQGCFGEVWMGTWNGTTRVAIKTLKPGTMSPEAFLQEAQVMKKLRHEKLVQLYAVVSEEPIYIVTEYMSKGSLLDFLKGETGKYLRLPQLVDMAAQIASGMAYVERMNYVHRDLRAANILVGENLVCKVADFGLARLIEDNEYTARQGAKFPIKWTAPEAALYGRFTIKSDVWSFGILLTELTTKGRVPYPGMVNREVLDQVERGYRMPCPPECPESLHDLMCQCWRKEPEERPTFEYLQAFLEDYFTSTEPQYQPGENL
T5 sequence (P42685 whole entry): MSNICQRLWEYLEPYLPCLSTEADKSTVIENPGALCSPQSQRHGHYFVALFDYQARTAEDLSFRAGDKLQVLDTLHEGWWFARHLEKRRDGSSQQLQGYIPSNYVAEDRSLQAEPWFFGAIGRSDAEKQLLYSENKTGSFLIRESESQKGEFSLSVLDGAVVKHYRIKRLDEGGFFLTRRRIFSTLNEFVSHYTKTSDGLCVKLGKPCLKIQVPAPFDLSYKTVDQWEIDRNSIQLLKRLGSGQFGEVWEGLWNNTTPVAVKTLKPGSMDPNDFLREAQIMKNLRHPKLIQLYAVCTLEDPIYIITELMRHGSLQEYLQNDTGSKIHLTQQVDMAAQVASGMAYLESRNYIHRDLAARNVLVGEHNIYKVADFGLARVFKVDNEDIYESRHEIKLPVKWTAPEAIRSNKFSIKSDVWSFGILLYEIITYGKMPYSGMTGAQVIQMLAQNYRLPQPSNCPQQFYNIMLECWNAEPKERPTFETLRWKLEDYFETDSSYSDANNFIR

Regarding `C[C@H](Nc1cncc(-c2ccc(N3CCN(C)CC3)cc2)n1)c1cccc(NC(=O)c2cccc(C(F)(F)F)c2)c1` [Compound 148], the inhibition at 0.1 µM came to 86% against cSRC(h); 93% against EphA2(h); 79% at EphA3(h); 81% against EphA8(h); 99% against PTK5(h). The inhibition at 1 µM stood at 96% at cSRC(h); 102% against EphA2(h); 99% against EphA3(h); 100% at EphA8(h); 100% on PTK5(h).

With `Cc1cccc(C(=O)Nc2cccc([C@H](C)Nc3cncc(C(N)=O)n3)c2)c1` [Compound 133, (S)-6-(1-(3-(3-methylbenzamido)phenyl)ethylamino)pyrazine-2-carboxamide], the inhibition at 0.1 µM against cSRC(h) is 1%; at EphA2(h), 69%; at EphA3(h) it was -4%; on EphA8(h) it was 7%; against PTK5(h), 80%. Besides, the inhibition at 1 µM was 14% against cSRC(h); 99% against EphA2(h); 34% on EphA3(h); 64% at EphA8(h); 98% against PTK5(h).

As for `Cc1cccc(C(=O)Nc2cccc([C@H](C)Nc3cncc(-c4ccc(N5CCN(C)CC5)cc4)n3)c2)c1` [Compound 129], the inhibition at 0.1 µM on cSRC(h) amounted to 38%; against EphA2(h), 24%; on EphA3(h) it was 18%; against EphA8(h), 42%; on PTK5(h) it was 99%. The inhibition at 1 µM against cSRC(h) turned out to be 85%; at EphA2(h), 93%; against EphA3(h) it was 76%; against EphA8(h) it was 90%; on PTK5(h), 100%.

As for `C[C@H](Nc1cncc(-c2cccc(N3CCOCC3)c2)n1)c1cccc(NC(=O)c2cccc(C(F)(F)F)c2)c1` [Compound 149], the inhibition at 0.1 µM at cSRC(h) was found to be 69%; against EphA2(h), 96%; against EphA3(h), 46%; against EphA8(h), 81%; at PTK5(h) it was 95%. Also, the inhibition at 1 µM was 96% against cSRC(h); 102% at EphA2(h); 94% against EphA3(h); 103% against EphA8(h); 100% against PTK5(h).

With `Cc1cccc(C(=O)Nc2cccc([C@H](C)Nc3cncc(-c4ccc(S(N)(=O)=O)cc4)n3)c2)c1` [Compound 77], the inhibition at 0.1 µM against cSRC(h) was 23%; at EphA2(h), 87%; on EphA3(h) it was 17%; against EphA8(h), 66%; against PTK5(h), 91%. Further, the inhibition at 1 µM is 74% on cSRC(h); 102% on EphA2(h); 70% on EphA3(h); 99% on EphA8(h); 99% at PTK5(h).

With `C[C@H](Nc1cncc(Cl)n1)c1cccc(NC(=O)c2cccc(C(F)(F)F)c2)c1` [Compound 114, (S)—N-(3-(1-(6-chloropyrazin-2-ylamino)ethyl)phenyl)-3-(trifluoromethyl)benzamide], the inhibition at 0.1 µM on cSRC(h) came out at 24%; on EphA2(h), 96%; against EphA3(h), 24%; against EphA8(h), 67%; against PTK5(h), 98%. Besides, the inhibition at 1 µM amounted to 80% against cSRC(h); 101% against EphA2(h); 92% at EphA3(h); 97% against EphA8(h); 100% at PTK5(h).

For the molecule `Cc1cccc(C(=O)Nc2cccc([C@H](C)Nc3cncc(-c4cccc(N5CCOCC5)c4)n3)c2)c1` [Compound 147], the inhibition at 0.1 µM on cSRC(h) was 45%; on EphA2(h), 97%; on EphA3(h) it was 44%; against EphA8(h) it was 71%; against PTK5(h) it was 94%. For the same molecule, the inhibition at 1 µM at cSRC(h) turned out to be 87%; at EphA2(h), 102%; against EphA3(h), 91%; against EphA8(h), 98%; on PTK5(h), 100%.

Take `Cc1cccc(C(=O)Nc2ccc(C)c([C@H](C)Nc3cncc(Cl)n3)c2)c1` [Compound 168]: the inhibition at 0.1 µM was 53% against cSRC(h); 102% against EphA2(h); 69% at EphA3(h); 91% against EphA8(h); 100% at PTK5(h). The inhibition at 1 µM was 95% on cSRC(h); 103% against EphA2(h); 98% at EphA3(h); 102% on EphA8(h); 100% at PTK5(h).

Consider `Cc1cccc(C(=O)Nc2cccc([C@H](C)Nc3cncc(-n4ccnc4)n3)c2)c1` [Compound 143, (S)—N-(3-(1-(6-(1H-imidazol-1-yl)pyrazin-2-ylamino)ethyl)phenyl)-3-methylbenzamide], for which the inhibition at 0.1 µM at cSRC(h) stood at 14%; against EphA2(h), 80%; at EphA3(h), 0%; on EphA8(h), 30%; at PTK5(h), 88%. Besides, the inhibition at 1 µM stood at 65% against cSRC(h); 99% against EphA2(h); 58% against EphA3(h); 82% on EphA8(h); 96% on PTK5(h).
